pIC50: −log10 of the molar value.

One may read the pIC50 as the IC50 on a negative log10 scale, so that one unit is a factor of ten. Broadly, the AC50 is the midpoint of the concentration-response curve, whichever way the signal moves.

One assay deals with T1, HDAC-1 (Homo sapiens, UniProt Q13547).
T1 construct: made in house
Nature of the assay: Deacetylase fluorescence assay (HDAC-1). Type of assay: biochemical. The conditions noted are these: read-out: HDAC-1 IC50. As for the experimental part: Conventional methods are used to express deacetylase enzymes and purify them from lysed cells. The following example describes an exemplary procedure, however equivalent procedures are within the scope of the invention.
The cell line used is a derivative of 293 cells overexpressing a fusion of the gene encoding each deacetylase protein with a nucleotide sequence encoding the Flag marker.
Cells are grown in Optimem, 2% Fetal Calf Serum, Pen/Strep. For enzyme preparation, Lysis buffer (IPLS) is 50 mM Tris-HCl, pH 7.5, 120 mM NaCl, 0.5 mM EDTA and 0.5% Nonidet P-40, to which is added one tablet of Protease inhibitors (Roche 11836170001) per 10 ml buffer. Other buffers are IPHS, which is IPLS containing 1 M NaCl; TBS (Sigma #T5912) dilute 10× stock to 1× with dH2O; HD buffer: 10 mM Tris pH 8.0 (1M Stock) 10 mM NaCl (5M Stock), 10% glycerol, and for dialysis: 400 μM PMSF is added (for 2 L: use 8 ml 100 mM Stock). Protease inhibitors (Complete mini, Boehringer Mannheim), 1 tablet/10 mL are added to all buffers but not used in buffers for enzyme assays.
Cells are harvested without using trypsin, and most cells are obtained easily in PBS, with gentle striking or agitation of flasks if necessary. More adherent cells are scraped in PBS. Cells are grown in 500 cm^2 trays, from which about half of the media is aspirated (50 ml total), then cells are scraped in the rest of the media and transferred to a centrifuge tube. Trays are washed with 25 ml cold PBS, scraped again to collect additional cells, and centrifuged at 1500 rpm at 4° C. for 5 min. Cells are washed at least 3 times in PBS to remove growth media, pelleting cells after each wash by centrifugation at 1500 rpm for 5 minutes. After washing, PBS is removed and the resulting cell pellet frozen at −80° C. for storage prior to purification.
For purification, cells are resuspended in lysis buffer, 12 ml of IPLS for cells collected from 10 500 cm trays. Cells are lysed at 4° C. for 3 hrs with rocking, and debris is removed by centrifugation for 20 min at 17,000 rpm in 30 ml centrifuge tubes. If supernatant is not clear afterward, centrifugation of the supernatant is repeated. Protein concentration of the whole cell lysate is determined (generally in the range of about 2-5 mg/ml).
For immunoprecipitation per mg of protein, 15 μL of anti-Flag M2-Agarose Affinity beads (Sigma #A2220) is used. Beads are prepared by washing 3 times with 10× bead volume of PBS and 1 time with IPLS, with centrifugation of the washes at 1500 rpm for 5 min. Whole cell lysate is incubated with the Ab-beads overnight at 4° C. Then beads are centrifuged and washed in 5× volume of the following buffers: three times in IPLS (30 sec at 4° C., spin at 1500 RPM for 5 min); three times in IPHS; and three times in TBS buffer. After each centrifugation, the supernatant is aspirated, leaving the pellet as dry as possible but avoiding sucking up any of the beads.
To elute the enzyme, beads are resuspended in 5× bead volume of TBS with protease inhibitor (Roche 11836170001) 1 tablet/10 mL. Enzyme is eluted with 400 μg/mL Flag peptide (Sigma #F-3290) for 3 hrs at 4° C. on rotator. Then beads are centrifuged, and the supernatant is transferred to a new tube to which is added 1/10 volume of glycerol. The supernatant is transferred to a dialysis cassette (Pierce #66410) using a 3 cc syringe and 18 G needle, and is dialyze sup in 2 L HD buffer for 2 hrs at 4° C. (1 L/hour). The resulting purified deacetylase is divided into aliquots (300 μL/tube), is snap frozen in dry ice bath, and is stored at −80° C.
For assay of deacetylase an assay based on Deacetylase Fluorescent Activity Assay/Drug Discovery Kit (BioMol # AK500) is used, however any equivalent deacetylase assay is within the scope of the invention.
The Fluorescent Assay Buffer (FAB) contains: 25 mM Tris-HCl, pH 8.0, 137 mM NaCl, 2.7 mM KCl and 1 mM MgCl2. […]

The test system of assay [1] is p21 promoter (p21-luc) in H1299 cells. The assay is described as follows: p21 promoter luciferase assay using stably transfected p21-luc in H1299 cells. Type of assay: cell-based. Conditions: Homo sapiens, NCI-H1299. As for the experimental part: The cell lines used are derived from H1299 (p21-luc). The growth media used is RPMI 1640, 10% FBS, 1% Pen/Strep and the selection media added is 500 μg/mL Geneticin (Gibco). The buffer used is 5× cell culture lysis buffer (Promega #E1531), stored at −20 C and the Luciferase assay reagent (Promega #E1483) is stored at −70° C. The results of the assay are analyzed using Wallac Software.
To assay Luciferase, the cell culture medium is removed after one day of growth and the flasks are washed once with PBS. The cells are trypsinized in 20 mL of media and the trypsin is neutralized. The cells are counted (0.5-1 mL) on a Vi-Cell XR cell viability analyzer.
Cells are then diluted to a concentration of approximately 5000 cells/200 μL, and 190 μL samples are aliquoted into each well of a Costar white 96-well TC treated white bottom plate with lid (Costar #3917). Plates are then incubated overnight at 37 C.
After a further day, a sample of the compound is added to the wells for assay.
After a further day, the cells are lysed and the luciferase activity of the lysed cells is measured. Each well is washed twice with PBS and 20 μL/well of 1× cell culture lysis buffer (dilute 5× to 1× in distilled water) is added to each well. The microtiter plates are then shaken on a microtiter plate shaker for 20 minutes at room temperate at a speed setting of 5-6. After removal from the shaker, 100 μL of Luciferase Reagent is added to each well. Each microtiter plate is then read on Wallac Envision instrument.

T1 sequence (Q13547 whole entry): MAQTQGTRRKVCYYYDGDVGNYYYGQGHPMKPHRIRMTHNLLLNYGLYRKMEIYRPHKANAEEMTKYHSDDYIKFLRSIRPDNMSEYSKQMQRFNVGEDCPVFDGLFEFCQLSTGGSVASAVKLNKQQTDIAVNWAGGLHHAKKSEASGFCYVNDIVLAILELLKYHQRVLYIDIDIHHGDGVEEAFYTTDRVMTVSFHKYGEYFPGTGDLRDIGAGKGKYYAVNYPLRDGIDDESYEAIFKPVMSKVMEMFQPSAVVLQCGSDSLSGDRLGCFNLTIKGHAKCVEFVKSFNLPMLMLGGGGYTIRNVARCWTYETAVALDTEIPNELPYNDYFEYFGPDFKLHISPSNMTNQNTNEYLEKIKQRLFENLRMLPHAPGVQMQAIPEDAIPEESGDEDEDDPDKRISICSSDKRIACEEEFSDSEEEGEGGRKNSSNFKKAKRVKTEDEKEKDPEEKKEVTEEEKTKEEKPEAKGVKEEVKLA

Consider `O=C(/C=C/c1ccc2c(c1)CN(CCC1CCCCC1)CC2)NO` [Example 45, (E)-3-[2-(2-Cyclohexyl-ethyl)-1,2,3,4-tetrahydro-isoquinolin-7-yl]-N-hydroxy-acrylamide], for which the negative-log IC50 (pIC50) on HDAC-1 is 6.00 to 7.00. Moreover, the AC50 in assay [1] was above 1000 nM.

As for `Cn1cc(CCN2CCc3ccc(/C=C/C(=O)NO)cc3C2)c(-c2ccccc2)n1` [Example 46, (E)-N-Hydroxy-3-{2-[2-(1-methyl-3-phenyl-1H-pyrazol-4-yl)-ethyl]-1,2,3,4-tetrahydro-isoquinolin-7-yl}-acrylamide], the negative logarithm of the IC50 (pIC50) on HDAC-1 is 6.00 to 7.00. The same compound came in with an AC50 in assay [1] above 1000 nM.

Take `O=C(/C=C/c1ccc2c(c1)CN(CCc1c[nH]nc1-c1ccccc1)CC2)NO` [Example 47, (E)-N-Hydroxy-3-{2-[2-(3-phenyl-1H-pyrazol-4-yl)-ethyl]-1,2,3,4-tetrahydro-isoquinolin-7-yl}-acrylamide]: the pIC50 on HDAC-1 is 6.00 to 7.00. The same compound gave a concentration at half-maximal activity (AC50) in assay [1] above 1000 nM.

On to `O=C(/C=C/c1ccc2c(c1)CN(CCc1ccnn1-c1ccccc1)CC2)NO` [Example 48, (E)-N-Hydroxy-3-{2-[2-(2-phenyl-2H-pyrazol-3-yl)-ethyl]-1,2,3,4-tetrahydro-isoquinolin-7-yl}-acrylamide], for which, at HDAC-1, the pIC50 was 6.00 to 7.00. This compound also yielded an AC50 in assay [1] above 1000 nM.

`Cc1c(CCN2CCc3ccc(/C=C/C(=O)NO)cc3C2)cnn1-c1ccccc1` [Example 49, (E)-N-Hydroxy-3-{2-[2-(5-methyl-1-phenyl-1H-pyrazol-4-yl)-ethyl]-1,2,3,4-tetrahydro-isoquinolin-7-yl}-acrylamide]: on HDAC-1, the pIC50 is 6.00 to 7.00. For the same compound, the concentration at half-maximal activity (AC50) in assay [1] is above 1000 nM.

As to `Cc1nn(C)c(C)c1CCN1CCc2ccc(/C=C/C(=O)NO)cc2C1` [Example 50, (E)-N-Hydroxy-3-{2-[2-(1,3,5-trimethyl-1H-pyrazol-4-yl)-ethyl]-1,2,3,4-tetrahydro-isoquinolin-7-yl}-acrylamide], the negative logarithm of the IC50 (pIC50) on HDAC-1 is 6.00 to 7.00. In assay [1], the concentration at half-maximal activity (AC50) is above 1000 nM.

As to `O=C(/C=C/c1ccc2c(c1)CN(Cc1ccccc1)CC2)NO` [Example 51, (E)-3-(2-Benzyl-1,2,3,4-tetrahydro-isoquinolin-7-yl)-N-hydroxy-acrylamide], the negative-log IC50 (pIC50) on HDAC-1 is 6.00 to 7.00. In assay [1], this compound registered an AC50 above 1000 nM.

Take `Cc1nn(C)c(C)c1CN1CCc2ccc(/C=C/C(=O)NO)cc2C1` [Example 52, (E)-N-Hydroxy-3-[2-(1,3,5-trimethyl-1H-pyrazol-4-ylmethyl)-1,2,3,4-tetrahydro-isoquinolin-7-yl]-acrylamide]: on HDAC-1, the negative logarithm of the IC50 (pIC50) was 6.00 to 7.00. Moreover, the AC50 in assay [1] is above 1000 nM.

In the case of `CN(C)c1ccc(C(=O)N2CCc3ccc(/C=C/C(=O)NO)cc3C2)cc1` [Example 53, (E)-3-[2-(4-Dimethylamino-benzoyl)-1,2,3,4-tetrahydro-isoquinolin-7-yl]-N-hydroxy-acrylamide], on HDAC-1, the negative-log IC50 (pIC50) was above 7.00. This compound yielded an AC50 in assay [1] above 1000 nM.

Take `O=C(/C=C/c1ccc2c(c1)CN(S(=O)(=O)c1ccccc1)CC2)NO` [Example 54, (E)-3-(2-Benzenesulfonyl-1,2,3,4-tetrahydro-isoquinolin-7-yl)-N-hydroxy-acrylamide]: the pIC50 on HDAC-1 was 6.00 to 7.00. The compound further registered an AC50 in assay [1] above 1000 nM.

In the case of `COc1cccc(S(=O)(=O)N2CCc3ccc(/C=C/C(=O)NO)cc3C2)c1` [Example 55, (E)-N-Hydroxy-3-[2-(3-methoxy-benzenesulfonyl)-1,2,3,4-tetrahydro-isoquinolin-7-yl]-acrylamide], the negative logarithm of the IC50 (pIC50) on HDAC-1 was 6.00 to 7.00. The same compound displayed an AC50 in assay [1] above 1000 nM.

As for `COc1ccc(S(=O)(=O)N2CCc3ccc(/C=C/C(=O)NO)cc3C2)cc1` [Example 56, (E)-N-Hydroxy-3-[2-(4-methoxy-benzenesulfonyl)-1,2,3,4-tetrahydro-isoquinolin-7-yl]-acrylamide], the negative logarithm of the IC50 (pIC50) on HDAC-1 is 6.00 to 7.00. In addition, the AC50 in assay [1] was above 1000 nM.

Turning to `COc1ccc(C(=O)N2CCc3ccc(/C=C/C(=O)NO)cc3C2)cc1` [Example 57, (E)-N-Hydroxy-3-[2-(4-methoxy-benzoyl)-1,2,3,4-tetrahydro-isoquinolin-7-yl]-acrylamide], at HDAC-1, the pIC50 was above 7.00. Besides, the AC50 in assay [1] was above 1000 nM.

As to `COc1ccc(C(=O)N2CCc3ccc(CCC(=O)NO)cc3C2)cc1` [Example 58, N-Hydroxy-3-[2-(4-methoxy-benzoyl)-1,2,3,4-tetrahydro-isoquinolin-7-yl]-propionamide], the pIC50 on HDAC-1 was 6.00 to 7.00. The compound further displayed a half-maximal activity concentration (AC50) in assay [1] above 1000 nM.

On to `COc1cccc(C(=O)N2CCc3ccc(/C=C/C(=O)NO)cc3C2)c1` [Example 59, (E)-N-Hydroxy-3-[2-(3-methoxy-benzoyl)-1,2,3,4-tetrahydro-isoquinolin-7-yl]-acrylamide], for which, at HDAC-1, the pIC50 is 6.00 to 7.00. In assay [1], this compound displayed an AC50 above 1000 nM.

Regarding `COc1cccc(C(=O)N2CCc3ccc(CCC(=O)NO)cc3C2)c1` [Example 60, N-Hydroxy-3-[2-(3-methoxy-benzoyl)-1,2,3,4-tetrahydro-isoquinolin-7-yl]-propionamide], on HDAC-1, the pIC50 is 6.00 to 7.00. The same compound showed an AC50 in assay [1] above 1000 nM.

On to `Cc1[nH]c2ccccc2c1CC(=O)N1CCc2ccc(/C=C/C(=O)NO)cc2C1` [Example 61, (E)-N-Hydroxy-3-{2-[2-(2-methyl-1H-indol-3-yl)-acetyl]-1,2,3,4-tetrahydro-isoquinolin-7-yl}-acrylamide], for which the pIC50 at HDAC-1 was above 7.00. The AC50 in assay [1] is above 1000 nM.

As for `Cc1[nH]c2ccccc2c1CC(=O)N1CCc2ccc(CCC(=O)NO)cc2C1` [Example 62, N-Hydroxy-3-{2-[2-(2-methyl-1H-indol-3-yl)-acetyl]-1,2,3,4-tetrahydro-isoquinolin-7-yl}-propionamide], the negative-log IC50 (pIC50) at HDAC-1 is above 7.00. The concentration at half-maximal activity (AC50) in assay [1] is above 1000 nM.

On to `O=C(/C=C/c1ccc2c(c1)CN(C(=O)Cc1ccccc1)CC2)NO` [Example 63, (E)-N-Hydroxy-3-(2-phenylacetyl-1,2,3,4-tetrahydro-isoquinolin-7-yl)-acrylamide], for which the negative-log IC50 (pIC50) at HDAC-1 is above 7.00. In assay [1], this compound gave an AC50 above 1000 nM.

As for `Cc1ccc(CC(=O)N2CCc3ccc(/C=C/C(=O)NO)cc3C2)cc1` [Example 64, (E)-N-Hydroxy-3-[2-(2-p-tolyl-acetyl)-1,2,3,4-tetrahydro-isoquinolin-7-yl]-acrylamide], at HDAC-1, the pIC50 was above 7.00. The AC50 in assay [1] was above 1000 nM.

Values taken from patent US20100022514A1, “Heterocycle Compounds and Methods of Use Thereof” (NORVARTIS AG, priority 2006, published 2010).
